Reference: PMC9709406 (Frontiers in Pharmacology, 2022)
“And” between values parts separate entries of the source, which are not always exact repeats. Equal entries are not always repeated.

Columns and labels:
H1650 cells = assay: MTT assay for cell proliferation and cytotoxicity, H1650; format: cell-based; conditions: Homo sapiens, NCI-H1650, 48 h, H1650, n = 5
Text: (§1) The human cancer cells (H1650, H1975, KYSE70, KYSE410 and KYSE450) were purchased from the Type Culture Collection of the Chinese Academy of Sciences (Shanghai, China). The human immortalized normal esophageal epithelial cell line SHEE was donated by Dr. Enmin Li from the Laboratory of Tumor Pathology (Shantou University Medical College, Shantou, Guangdong, China). Drug-resistant cells (H1650TR, H1975OR, KYSE70TR, KYSE410TR and KYSE450TR) were induced by China-US (Henan) Hormel Cancer Institute. The cellswere cultured in RPMI-1640 complete growth medium containing 100 U/mL penicillin-streptomycin and 10% FBS. Based on the above medium formula, 100 nm/L paclitaxel was added in taxol-resistant cells, 100 nm/L gefitinib was added in gefitinib-resistant cells. The cells were incubated at 37 °C in an atmosphere containing 5% of CO2. The compounds were dissolved in DMSO to make a 50 mM stock solution and were diluted to the concentration of working solutions with complete growth medium before administration.
(§2) Cells were seeded in 96-well plates with 2,200–2,500 cells/well in100 μL. One day after seeding, test compounds with the concentration between 0 and 50 μM were added with 0.1% DMSO as control. Five multiple wells for each concentration. After 48 h, MTT was added and incubated in the plate for 1–4 h in the incubator. The absorbance at 490 nm was measured using a microplate reader (Thermo).

H1975 cells = assay: MTT assay for cell proliferation and cytotoxicity, H1975; format: cell-based, human; conditions: Homo sapiens, NCI-H1975, 48 h, MTT, 48 h, H1975, n = 5; read-out: IC50 48 h H1975
Text: as §1
Cells were seeded in 96-well plates with 2,200–2,500 cells/well in100 μL. One day after seeding, test compounds with the concentration between 0 and 50 μM were added with 0.1% DMSO as control. Five multiple wells for each concentration. […] The absorbance at 490 nm was measured using a microplate reader (Thermo).

SHEE cells = assay: MTT assay, normal esophageal epithelial cell line SHEE; format: cell-based; conditions: Homo sapiens, 48 h, n = 5
Text: as §1, §2

KYSE70 cells = assay: MTT assay, KYSE70; format: cell-based, human; conditions: for IC50: Homo sapiens, KYSE-70, MTT, 48 h, KYSE70, n = 5
Text: as §1, §2

KYSE410 cells = assay: MTT assay, KYSE410; format: cell-based, human; conditions: for IC50: Homo sapiens, KYSE-410, MTT, 48 h, KYSE410, n = 5, read-out: IC50 48 h KYSE410
Text: as §1, §2

KYSE450 cells = assay: MTT assay, KYSE450; format: cell-based, human; conditions: for IC50: Homo sapiens, KYSE-450, MTT, 48 h, KYSE450, n = 5, read-out: IC50 48 h KYSE450; for absorbance 490 nm, single well / mean absorbance 490 nm (row G) / mean absorbance 490 nm minus background (row H): KYSE450
Text: as §1, §2

[1] = concentration 12.5 (unit not given)
[2] = concentration 25 (unit not given)
[3] = concentration 50 (unit not given)
[4] = concentration 100 (unit not given)

## Fc1cccc(-n2cc(-c3cccc(Nc4ncnc5cc6c(cc45)OCCOCCOCCO6)c3)nn2)c1 [compound 3a]
H1650 cells
  IC50: 15.6 ± 1.02 µM
H1975 cells
  IC50: 9.87 ± 0.88 µM
SHEE cells
  IC50: 12.1 ± 0.97 µM
KYSE70 cells
  IC50: 10.2 ± 0.88 µM
KYSE410 cells
  IC50: 48.6 ± 2.16 µM
KYSE450 cells
  IC50: 7.24 ± 0.65 µM
other
  melting point: 123 to 126 °C

## Fc1ccc(-n2cc(-c3cccc(Nc4ncnc5cc6c(cc45)OCCOCCOCCO6)c3)nn2)cc1 [compound 3c]
H1650 cells
  IC50: 9.4 ± 0.73 µM
H1975 cells
  IC50: > 50 µM
SHEE cells
  IC50: 6.23 ± 0.37 µM
KYSE70 cells
  IC50: 5.84 ± 0.36 µM
KYSE410 cells
  IC50: > 50 µM
KYSE450 cells
  IC50: 13.8 ± 1.13 µM
other
  melting point: 129 to 132 °C

## c1ccc(-n2cc(-c3cccc(Nc4ncnc5cc6c(cc45)OCCOCCOCCO6)c3)nn2)cc1 [compound 3f]
H1650 cells
  IC50: 12.3 ± 0.91 µM
H1975 cells
  IC50: > 50 µM
SHEE cells
  IC50: > 50 µM
KYSE70 cells
  IC50: 25 ± 1.53 µM
KYSE410 cells
  IC50: > 50 µM
KYSE450 cells
  IC50: 45 ± 2.53 µM
other
  melting point: 148 to 150 °C

## Clc1cccc(-n2cc(-c3cccc(Nc4ncnc5cc6c(cc45)OCCOCCOCCO6)c3)nn2)c1 [compound 3g]
H1650 cells
  IC50: 8.72 ± 0.73 µM
H1975 cells
  IC50: 4.75 ± 0.33 µM
SHEE cells
  IC50: 8.01 ± 0.77 µM
KYSE70 cells
  IC50: 6.13 ± 0.31 µM
KYSE410 cells
  IC50: 10.9 ± 0.99 µM
KYSE450 cells
  IC50: 4.51 ± 0.29 µM

## Ic1ccccc1-n1cc(-c2cccc(Nc3ncnc4cc5c(cc34)OCCOCCOCCO5)c2)nn1 [compound 3h]
H1650 cells
  IC50: 30.6 ± 1.99 µM
H1975 cells
  IC50: 12.1 ± 0.92 µM
SHEE cells
  IC50: 22.6 ± 1.19 µM
KYSE70 cells
  IC50: 18.4 ± 1.05 µM
KYSE410 cells
  IC50: > 50 µM
KYSE450 cells
  IC50: 16.7 ± 1.31 µM
other
  melting point: 137 to 140 °C

## COc1cccc(-n2cc(-c3cccc(Nc4ncnc5cc6c(cc45)OCCOCCOCCO6)c3)nn2)c1 [compound 3i]
H1650 cells
  IC50: 6.25 ± 0.54 µM
H1975 cells
  IC50: 19.7 ± 1.07 µM
SHEE cells
  IC50: 28.1 ± 1.38 µM
KYSE70 cells
  IC50: 7.02 ± 0.64 µM
KYSE70 cells; KYSE70, concentration 12.5
  blank-corrected absorbance 490 nm relative to control (fraction): 0.1099
  inhibition (1 minus fraction of control): 0.8901
KYSE70 cells; KYSE70, concentration 25
  blank-corrected absorbance 490 nm relative to control (fraction): 0.08489
  inhibition (1 minus fraction of control): 0.9151
KYSE70 cells; KYSE70, concentration 50
  blank-corrected absorbance 490 nm relative to control (fraction): 0.007475
  inhibition (1 minus fraction of control): 0.9925
KYSE70 cells; KYSE70, concentration 100
  blank-corrected absorbance 490 nm relative to control (fraction): -0.01388
  inhibition (1 minus fraction of control): 1.014
KYSE410 cells
  IC50: > 50 µM
KYSE410 cells; KYSE410, concentration 12.5
  blank-corrected absorbance 490 nm relative to control (fraction): 0.4787
KYSE410 cells; KYSE410, concentration 25
  blank-corrected absorbance 490 nm relative to control (fraction): 0.6596
KYSE410 cells; KYSE410, concentration 50
  blank-corrected absorbance 490 nm relative to control (fraction): 1.468
KYSE410 cells; KYSE410, concentration 100
  blank-corrected absorbance 490 nm relative to control (fraction): 0.817
KYSE450 cells
  IC50: 10 ± 0.93 µM
KYSE450 cells; [1]
  absorbance 490 nm, single well: 0.3641 and 0.3196 and 0.3651
  mean absorbance 490 nm (row G): 0.3496
  mean absorbance 490 nm minus background (row H): 0.2948
KYSE450 cells; [2]
  absorbance 490 nm, single well: 0.1604 and 0.1809 and 0.1731
  mean absorbance 490 nm (row G): 0.1715
  mean absorbance 490 nm minus background (row H): 0.1167
KYSE450 cells; [3]
  absorbance 490 nm, single well: 0.1052 and 0.1046 and 0.0923 and 0.1026
  mean absorbance 490 nm (row G): 0.1012
  mean absorbance 490 nm minus background (row H): 0.04637
KYSE450 cells; [4]
  absorbance 490 nm, single well: 0.0702 and 0.0745 and 0.0767 and 0.0714
  mean absorbance 490 nm (row G): 0.0732
  mean absorbance 490 nm minus background (row H): 0.0184
other
  melting point: 122 to 125 °C

## Brc1ccc(-n2cc(-c3cccc(Nc4ncnc5cc6c(cc45)OCCOCCOCCO6)c3)nn2)cc1 [compound 3j]
H1650 cells
  IC50: 27.6 ± 1.85 µM
H1975 cells
  IC50: 5.02 ± 0.37 µM
SHEE cells
  IC50: > 50 µM
KYSE70 cells
  IC50: 50 µM
KYSE410 cells
  IC50: > 50 µM
KYSE450 cells
  IC50: 12.5 ± 1.22 µM
other
  melting point: 158 to 161 °C

## Brc1ccccc1-n1cc(-c2cccc(Nc3ncnc4cc5c(cc34)OCCOCCOCCO5)c2)nn1 [compound 3k]
H1650 cells
  IC50: 17.7 ± 1.21 µM
H1975 cells
  IC50: 27.2 ± 1.67 µM
SHEE cells
  IC50: 12.5 ± 1.03 µM
KYSE70 cells
  IC50: 5.05 ± 0.34 µM
KYSE410 cells
  IC50: 21.9 ± 1.39 µM
KYSE450 cells
  IC50: 6.25 ± 0.57 µM
other
  melting point: 129 to 132 °C

## Fc1ccccc1Cn1cc(-c2cccc(Nc3ncnc4cc5c(cc34)OCCOCCOCCO5)c2)nn1 [compound 3m]
H1650 cells
  IC50: > 50 µM
H1975 cells
  IC50: 47.3 ± 2.01 µM
SHEE cells
  IC50: > 50 µM
KYSE70 cells
  IC50: > 50 µM
KYSE410 cells
  IC50: > 50 µM
KYSE450 cells
  IC50: > 50 µM
other
  melting point: 118 to 121 °C

## Cc1ccccc1Cn1cc(-c2cccc(Nc3ncnc4cc5c(cc34)OCCOCCOCCO5)c2)nn1 [compound 3n]
H1650 cells
  IC50: 17 ± 1.27 µM
H1975 cells
  IC50: 18.5 ± 1.43 µM
SHEE cells
  IC50: 8.05 ± 0.71 µM
KYSE70 cells
  IC50: 6.87 ± 0.51 µM
KYSE70 cells; KYSE70, concentration 12.5
  blank-corrected absorbance 490 nm relative to control (fraction): 0.09055
  inhibition (1 minus fraction of control): 0.9094
KYSE70 cells; KYSE70, concentration 25
  blank-corrected absorbance 490 nm relative to control (fraction): 0.002598
  inhibition (1 minus fraction of control): 0.9974
KYSE70 cells; KYSE70, concentration 50
  blank-corrected absorbance 490 nm relative to control (fraction): 0.03637
  inhibition (1 minus fraction of control): 0.9636
KYSE70 cells; KYSE70, concentration 100
  blank-corrected absorbance 490 nm relative to control (fraction): 0.0579
  inhibition (1 minus fraction of control): 0.9421
KYSE410 cells
  IC50: 8.23 ± 0.92 µM
KYSE410 cells; KYSE410, concentration 12.5
  blank-corrected absorbance 490 nm relative to control (fraction): 0.2414
  inhibition (1 minus fraction of control): 0.7586
KYSE410 cells; KYSE410, concentration 25
  blank-corrected absorbance 490 nm relative to control (fraction): 0.04668
  inhibition (1 minus fraction of control): 0.9533
KYSE410 cells; KYSE410, concentration 50
  blank-corrected absorbance 490 nm relative to control (fraction): 0.02603
  inhibition (1 minus fraction of control): 0.974
KYSE410 cells; KYSE410, concentration 100
  blank-corrected absorbance 490 nm relative to control (fraction): 0.07058
  inhibition (1 minus fraction of control): 0.9294
KYSE450 cells
  IC50: 13.4 ± 0.99 µM
KYSE450 cells; [1]
  absorbance 490 nm, single well: 0.3403 and 0.3956 and 0.3877
  mean absorbance 490 nm (row G): 0.3745
  mean absorbance 490 nm minus background (row H): 0.3163
KYSE450 cells; [2]
  absorbance 490 nm, single well: 0.0581 and 0.0586 and 0.0622 and 0.0619
  mean absorbance 490 nm (row G): 0.0602
  mean absorbance 490 nm minus background (row H): 0.002
KYSE450 cells; [3]
  absorbance 490 nm, single well: 0.062 and 0.0626 and 0.0677 and 0.0632
  mean absorbance 490 nm (row G): 0.06374
  mean absorbance 490 nm minus background (row H): 0.00554
KYSE450 cells; [4]
  absorbance 490 nm, single well: 0.0608 and 0.061 and 0.0613 and 0.0611 and 0.0627
  mean absorbance 490 nm (row G): 0.06138
  mean absorbance 490 nm minus background (row H): 0.00318
other
  melting point: 114 to 117 °C

## Cc1ccc(Cn2cc(-c3cccc(Nc4ncnc5cc6c(cc45)OCCOCCOCCO6)c3)nn2)cc1 [compound 3o]
H1650 cells
  IC50: 5.6 ± 0.29 µM
H1975 cells
  IC50: 8.7 ± 0.66 µM
SHEE cells
  IC50: 22.4 ± 1.26 µM
KYSE70 cells
  IC50: 14.6 ± 0.96 µM
KYSE410 cells
  IC50: > 50 µM
KYSE450 cells
  IC50: 4.81 ± 0.36 µM
other
  melting point: 124 to 127 °C

## Ic1ccccc1Cn1cc(-c2cccc(Nc3ncnc4cc5c(cc34)OCCOCCOCCO5)c2)nn1 [compound 3p]
H1650 cells
  IC50: 4.41 ± 0.31 µM
H1975 cells
  IC50: 39.5 ± 1.91 µM
SHEE cells
  IC50: > 50 µM
KYSE70 cells
  IC50: 19.9 ± 1.31 µM
KYSE410 cells
  IC50: > 50 µM
KYSE450 cells
  IC50: > 50 µM
other
  melting point: 121 to 123 °C
